Source: patent publication US20220296108A1, “METHOD AND APPARATUS FOR QUANTITATION OF MICROCIRCULATION” (Seoul National University Hospital, priority 2019, published 2022)

Columns and labels:
CLP mouse model [1] = assay: Arterial blood gas analysis in CLP mouse model before and after abciximab; assay type: in vivo; settings: post-Abc CLP mouse vs normal group (Sham)
Protocol: In addition, arterial blood gas analysis was performed to assess the oxygen partial pressure and carbon dioxide partial pressure in the arterial blood of the pre-Abc mouse model and the post-Abc mouse model. Specifically, a 1-mL syringe with a 22-gauge needle was coated with heparin and introduced into the left ventricle of the heart of the normal mouse model (Sham) (n=8), pre-Abc mouse model (Fc) (n=10) and post-Abc mouse model (Abc) (n=6). Then, about 200 μL of blood was sampled and analyzed with an i-STAT handheld blood analyzer (G3 cartridge, Abbott Point of Care Inc.). The mice were euthanized in a CO2 chamber right after the blood sampling.

CLP mouse model [2] = assay: Histological analysis of the number of sequestered neutrophils (Ly6G+ cells) in Mac-1-inhibited CLP mouse model; assay type: in vivo; settings: vs CLP mouse model (Fc) and normal group (Sham), FIG. 28B
Description: Specifically, lung tissues were harvested after intravital imaging of the mouse models. The tissues were perfused and fixed with 4% paraformaldehyde and then further fixed overnight in 4% paraformaldehyde. For H&E (hematoxylin and eosin) staining, the fixed tissues were processed using standard procedures, embedded in paraffin and then sliced into 4-μm sections, followed by conventional H&E staining.

CLP mouse model [3] = assay: Functional capillary ratio (FCR) by intravital lung imaging in Mac-1-inhibited CLP mouse model
Protocol: CLP model was performed by a single experienced operator according to a previously described method. Specifically, 75% of the cecum of the LysM^GFP/+ mouse was ligated with 6-0 black silk and single puncture with a dual hole in the distal cecum was made with a 21-gauge needle. After the puncture, the cecum was gently squeezed to confirm the patency of the puncture hole for extrusion of feces. The cecum was replaced to the abdominal cavity and the abdominal incision was closed with 4-0 black silk. A normal group (sham group) underwent the same surgical procedure except the cecal ligation and puncture. […]
Specifically, three continuous laser modules (488 nm (MLD488, Cobolt), 561 nm (Jive, Cobolt) and 640 nm (MLD640, Cobolt)) were utilized as excitation light sources for multi-color fluorescence imaging. […] The fluorescence signals emitted from the lung of the mouse model on a XYZ translational 3D stage (3DMS, Sutter Instrument) were epi-detected by the objective lenses. De-scanned three-color fluorescence signals were spectrally divided by diachronic beam splitters (DBS4; FF560-Di01, DBS5; FF649-Di01, Semrock) and then detected by a photomultiplier (PMT; R9110, Hamamatsu) through bandpass filters (BPF1; FF02-525/50, BPF2; FF01-600/37, BPF3; FF01-685/40, Semrock). […]

Substance: abciximab
- Oxygen partial pressure in arterial blood (CLP mouse model [1]; FIG. 31A): comparable to that of the normal group
- Carbon dioxide partial pressure in arterial blood (CLP mouse model [1]; FIG. 31B): comparable to that of the normal group
- Number of sequestered neutrophils (Ly6G+ cells) (CLP mouse model [2]): recovered to a level comparable to that of the normal group
- Functional capillary ratio (FCR) increase after vs before abciximab administration (CLP mouse model [3]; CLP mouse imaged 6 hours after CLP (pre-Abc), then 30 minutes after abciximab (post-Abc)): ≥ 2 times
- Dead space and functional capillaries in pulmonary microcirculation imaging (CLP mouse model [3]; CLP mouse, vs CLP mouse model (Fc), FIG. 27): dead space was decreased
